Source: US10245245B2, “Compositions and methods for neuroprotection and treatment of neurodegeneration” (Vireo Systems, Inc., priority 2015, dated 2019)

Columns and labels:
[1] = test system: confirmed carriers of the HD gene mutation; experiment: Creatine HCl in patients having HD gene mutation (clinical neurological assessment, MRI); format: in vivo, human; details: 10 to 12 grams/day
Experimental: Patients were confirmed carriers of the HD gene mutation at early stage 1 progression. Each patient was instructed to take 10 to 12 grams/day of creatine HCl. Neurological progression of disease was monitored quarterly as were full blood chemistry profiles. Assessment of neurological progression using magnetic resonance imaging (MRI) was also performed at a minimum of once a year.

Relative bioavailability = details: in vivo
[2] = cited from earlier work

Row | SMILES | progression of disease (clinical neurological assessments or MRI) ([1]; 3.5 years, early stage 1 carriers) | onset of the disease / symptoms ([1]; over the 3.5 year time period) | relative bioavailability, greater than creatine monohydrate (Relative bioavailability) | patients unable to tolerate the maximum dose ([2]; 30 g daily) | those on placebo unable to tolerate the maximal dose when they switched to it ([2]; maximal dose 30 g daily) [%]
1 | CN(CC(=O)O)C(=N)N.Cl [creatine HCl, creatine hydrochloride] | no progression of disease | no symptoms | at least 50% | – | –
2 | CN(CC(=O)O)C(=N)N.O [creatine monohydrate] | – | – | – | about one-third | 13
